According to patent US12491198B2, “Doxycycline injection for sclerotherapy of lower eyelid festoons and malar edema” (LKF21, LLC, priority 2020, dated 2025):

What was measured:
[1] = tested on: edema of festoons and malar mounds; assay: Studies of doxycycline as sclerosing agent at lower concentrations and compared with tetracycline; assay type: in vivo; conditions: versus tetracycline
[2] = tested on: lower eyelid festoons and malar edema; assay type: in vivo, human
Protocol: An initial study of 15 consecutive patients with malar edema and/or festoons were injected with doxycycline hyclate at a concentration of 10 mg/mL. Pre- and post-injection photographs were reviewed and graded on a scale of 0 to 3 (0 no festoon, 1 small festoon, 2 medium festoon, 3 large festoon) by two blinded physician observers. […] Student t-test was used for statistical analysis.
Institutional Review Board (IRB) approval was obtained. A retrospective chart review was performed on 15 consecutive patients injected with doxycycline hyclate at a concentration of 10 mg/mL directly into their malar edema and festoons. The primary outcome measure was improvement in the appearance of lower eyelid festoons or malar edema. Pre- and post-injection photographs were reviewed and graded on a scale of 0 to 3 (0 no festoon, 1 small festoon, 2 medium festoon, 3 large festoon) by two blinded physician observers. All pre- and post-treatment photographs were taken in a standardized position without the use of a flash device. Written consent was obtained for the use of photographs and is on file with the authors. Additional data collected included patient age, volume of injection, location of injection, number of injections, and subjective complaints. […] Student t-test was used for statistical analysis.
Patients were offered injections in clinic or in the operating room with intravenous sedation, with or without concurrent eyelid surgery. For injections performed in the operating room, doxycycline hyclate was ordered from the hospital pharmacy at a concentration of 10 mg/mL. For injections performed in the office, doxycycline hyclate 100 mg sterile powder, lyophilized (Fresenius Kabi, Lake Zurich, Illinois, USA) was diluted to a concentration of 10 mg/mL with sterile 0.9% bacteriostatic sodium chloride solution. The solution was refrigerated at […], used within 48 hours of reconstitution, and protected from direct sunlight. Injections were performed using 1.0 mL syringes on a 30-gauge needle, directly into the festoon in multiple deep and intermediate planes beneath skin and muscle. Analysis of protected health information was compliant with the Health Insurance Portability and Accountability Act (HIPAA) and adherent to the Declaration of Helsinki.

SMILES: C[C@H]1c2cccc(O)c2C(=O)C2=C(O)[C@]3(O)C(=O)C(C(N)=O)=C(O)[C@@H](N(C)C)[C@@H]3[C@@H](O)[C@@H]21 [doxycycline hyclate]
- risk of necrotizing dermalysis compared with tetracycline [1]: significantly lower risk
- bruising, average duration ([2]; human, in vivo): 10 days
- patients reporting burning pain during the injection ([2]; human, in vivo): 100%
- skin redness, average duration of symptoms ([2]; human, in vivo): 2 days
- average (standard deviation) festoon grade after injection ([2]; post-injection, 10 mg/mL intralesional, scale 0 to 3, 20 treatment sides of 11 patients, mean follow up 22.5 weeks, p-value<0.001 vs initial): 0.9 (0.82)
- average (standard deviation) initial festoon grade ([2]; pre-injection, scale 0 to 3 (0 no festoon, 3 large festoon), 20 treatment sides of 11 patients, two blinded physician observers): 2.5 (0.58)
